Results on 1 substance are retold here after US10751390B2, “Lipidated peptides as neuroprotective agents” (USTAV ORGANICKE CHEMIE A BIOCHEMIE AV CR, V.V.I., priority 2014, dated 2020).

Holding throughout (format): in vivo
For experiment [1], the system named is insulin signaling cascade (PDK-1, Akt, GSK-3β). As to the kind of experiment: Western blot of insulin signaling cascade in hippocampi of 6-month-old MSG mice after 14-day treatment. The settings on record: 14 days SC twice a day, liraglutide 0.2 mg/kg, vs saline. The method, then: (§1) Groups of MSG mice (n=10 animals per group) were for 14 days SC administered with liraglutide at a dose 0.2 mg/kg, or palmitoylated analog of PrRP31 at a dose 5 mg/kg, or palmitoylated analog with PrRP31 with dichlorophenylalanin in position 31 at a dose 5 mg/kg dissolved in saline, twice a day, at 8 a.m. and 6:00 p.m. Control mice (n=10 animals per group), NMRI and MSG, were injected in the same manner with saline (the volume was always 0.2 ml/mouse).
(§2) Overnight (15 hours) fasted mice with ad libitum access to water were weighed, and their plasma glucose concentration was measured using Glucocard glucometer. After decapitation, the brains were dissected on ice, and cut between hemispheres. For immunohistochemical staining the half of the brain was fixed for 24 hours in 4% paraformaldehyde and dehydrated in 70% ethanol, afterward. For the western blot (WB) analysis, the hippocampus was dissected from the second half of the brain, and lysed in cold lysis buffer (62.5 mmol·l^−1 Tris-HCl, pH 6.8 with 1% sodium deoxycholate, 1% Triton X-100 Complete, 50 mmol·l^−1 NaF, 1 mmol·l^−1 Na3VO4), homogenized, sonicated 10 minutes and stored at −20° C. The blood plasma was prepared, and stored at −20° C.
(§3) In homogenized hippocampi the protein level was measured using BCA kit (Pierce, Thermo Fisher Scientific, Rockfor, Ill., USA), then the samples were diluted in sample buffer (62.5 mmol/l Tris-HCl pH 6.8, 10% glycerol, 2% SDS, 0.01% bromfenol blue, 5% merkaptoethanol, 50 mmol/l NaF and 1 mmol/l Na3VO4) to final concentration […]. WB method and analysis of the results were performed according Nagelová et al. (Nagelova et al., 2014).

Experiment [2] deals with Tau protein. In words: Western blot of Tau phosphorylation in hippocampi of 6-month-old MSG mice after 14-day treatment. The following applies: 14 days SC twice a day, liraglutide 0.2 mg/kg, vs saline. Here is the method:
as §1, §2, §3

Experiment [3] has as its system Tau protein. As to the kind of experiment: Immunohistochemical fluorescent double staining of Tau phosphorylation in CA1 region of hippocampi of MSG mice. The following applies: 6-month-old MSG mice, 14 days SC twice a day; liraglutide 0.2 mg/kg, PrRP31 analog 5 mg/kg; epitopes Thr212 and Ser202/Thr205. Here is the method: as §1, §2
To verify the results obtained from WB analysis the immunohistochemical staining was performed. Ten micrometer (10 μm) thick sections were prepared at INSERM, Lille, France. […]

For the substance “(N-palm)SRTHRHSMEIRTPDINPAWYASRGIRPVGRF-NH2 [palmitoylated analog of PrRP31]”, in experiment [1] (PrRP31 analog 5 mg/kg), the “phosphorylation of Akt (Thr308)” value was “more pronounced phosphorylation”. For the same substance, in experiment [1] (PrRP31 analogs 5 mg/kg), the “activation of kinases implicated in insulin signaling cascade” value is given as “Enhanced activation” and the “phosphorylation of GSK-3β (Ser9)” value is “more pronounced phosphorylation”. Besides, the “not-phosphorylated Tau (antibody Tau1)” value in the experiment with Tau protein [2] (PrRP31 analog 5 mg/kg) is given as “did not show any significant differences among groups”. Moreover, in the experiment with Tau protein [2] (PrRP31 analogs 5 mg/kg), the “phosphorylation of Tau protein at epitope Ser396” value is on record as “decreased phosphorylation”, the “phosphorylation of Tau protein at epitope Thr212” value was “decreased phosphorylation” and the “phosphorylation of Tau protein at epitope Thr231” value is reported as “decreased phosphorylation”. Besides, in the experiment on Tau protein [3], the “Tau phosphorylation in hippocampal region CA1 (fluorescent signal)” value is recorded as “decreased”.
